Data reported in ChEMBL document CHEMBL6109153, “Development of Membrane-Targeting Osthole Derivatives Containing Pyridinium Quaternary Ammonium Moieties with Potent Anti-Methicillin-Resistant Staphylococcus aureus Properties” (J Med Chem, 2025).
Calls of active or inactive are those of the source. No cut-off for these calls is given here.

Tests used:
Staphylococcus aureus [1] = assay: Induction of bacterial eradication in methicillin-resistant Staphylococcus aureus M11 at 4 times MIC incubated for 8 hrs by time-kill assay; type: functional, organism-based
Staphylococcus aureus [2] = assay: Antibacterial activity against methicillin-resistant Staphylococcus aureus M11 infected in BALB/c mouse model of Sepsis assessed as reduction in swelling in inner epidermal abscesses at 4 mg/kg measured after 24 hrs; type: functional, organism-based
[3] = Toxicity in BALB/c mouse assessed as change in blood routine parameters at 30 mg/kg, ip measured for 7 days; type: organism-based; details: in vivo, 168 h, time 7 day
[4] = Toxicity in BALB/c mouse assessed as normal behavior at 5 to 40 mg/kg, ip measured for 7 days; type: organism-based; details: in vivo, 168 h, dose 5-40 mg/kg, time 7 day
[5] = Toxicity in BALB/c mouse assessed as normal appetite at 5 to 40 mg/kg, ip measured for 7 days; type: organism-based; details: in vivo, 168 h, dose 5-40 mg/kg, time 7 day
Staphylococcus aureus [6] = assay: Antibacterial activity against methicillin-resistant Staphylococcus aureus M11 infected in BALB/c mouse model of Sepsis assessed as reduction in serum IL-6 level administered intraperitoneally measured after 48 hrs; type: functional, organism-based; details: dose 10-20 mg/kg, route ip
[7] = Toxicity in BALB/c mouse assessed as lesions in tissues of organs at 30 mg/kg, ip measured for 7 days by H and E staining based analysis; type: organism-based; details: in vivo, 168 h, time 7 day
[8] = Cytotoxicity against human L02 cells assessed as cell survival rate at 32 times MIC incubated for 24 hrs by CCK8 assay; type: toxicity, cell-based; details: read-out: Survival
Staphylococcus aureus [9] = assay: Antibacterial activity against methicillin-resistant Staphylococcus aureus M11 up to 128 ug/ml in presence of cardiolipin incubated for 16 to 18 hrs; type: functional, organism-based; details: dose <= 128.0 µg/ml, time 16-18 hrs
Staphylococcus aureus [10] = assay: Antibacterial activity against methicillin-resistant Staphylococcus aureus M11 infected in BALB/c mouse model of Sepsis assessed as reduction in bacterial load in spleen at 20 mg/kg, ip measured after 48 hrs; type: functional
Staphylococcus aureus [11] = assay: Antibacterial activity against methicillin-resistant Staphylococcus aureus M11 assessed as fold increase in MIC up to 128 ug/ml in presence of 128 ug/ml peptidoglycan incubated for 16 to 18 hrs relative to control; type: functional; details: dose <= 128 µg/ml; time 16-18 hrs
Staphylococcus aureus [12] = assay: Antibacterial activity against methicillin-resistant Staphylococcus aureus M16 incubated for 16 to 20 hrs by broth microdilution method; type: functional; details: time 16-20 hrs
Staphylococcus aureus [13] = assay: Antibacterial activity against methicillin-resistant Staphylococcus aureus M11 infected in BALB/c mouse model of Sepsis assessed as reduction in serum TNF-alpha level administered intraperitoneally measured after 48 hrs; type: functional, organism-based; details: dose 10-20 mg/kg, route ip
Staphylococcus aureus [14] = assay: Antibacterial activity against methicillin-resistant Staphylococcus aureus M11 up to 128 ug/ml in presence of 32 ug/ml cardiolipin incubated for 16 to 18 hrs; type: functional; details: dose <= 128 µg/ml, time 16-18 hrs
Staphylococcus aureus [15] = assay: Bactericidal activity against methicillin-resistant Staphylococcus aureus M11 at 8 ug/ml measured up to 6 hrs in presence of 50% plasma; type: functional, organism-based; details: dose 8.0 µg/ml
Staphylococcus aureus [16] = assay: Antibacterial activity against methicillin-resistant Staphylococcus aureus M12 incubated for 16 to 20 hrs by broth microdilution method; type: functional; details: time 16-20 hrs
[17] = Toxicity in BALB/c mouse model of Sepsis infected with methicillin-resistant Staphylococcus aureus M11 assessed as lesions in liver at 4 to 8 mg/kg measured after 24 hrs by H and E staining based analysis; type: organism-based; details: in vivo, dose 4-8 mg/kg
[18] = Toxicity in BALB/c mouse assessed as mortality rate at 40 mg/kg, ip measured for 7 days; type: organism-based; details: in vivo, time 7 day, read-out: Activity
Staphylococcus aureus [19] = assay: Antibacterial activity against methicillin-resistant Staphylococcus aureus M11 infected in BALB/c mouse model of Sepsis assessed as reduction in TNF-alpha level measured after 24 hrs; type: functional, organism-based; details: dose 4-8 mg/kg
Staphylococcus aureus [20] = assay: Induction of cell permeability in methicillin-resistant Staphylococcus aureus M11 assessed as increase in fluorescence intensity by SYTOX Green dye based analysis; type: functional, organism-based
Staphylococcus aureus [21] = assay: Antibacterial activity against methicillin-resistant Staphylococcus aureus M11 upto 128 ug/ml in presence of phosphatidylethanolamine incubated for 16 to 18 hrs; type: functional, organism-based; details: dose <= 128.0 µg/ml, time 16-18 hrs
Staphylococcus aureus [22] = assay: Antibacterial activity against methicillin-resistant Staphylococcus aureus M11 infected in BALB/c mouse model of Sepsis assessed as reduction in bacterial load in skin tissues at 8 mg/kg measured after 24 hrs; type: functional
Staphylococcus aureus [23] = assay: Induction of cell permeability in methicillin-resistant Staphylococcus aureus M11 assessed as fold increase in fluorescence intensity at 32 times MIC by SYTOX Green dye based analysis relative to control; type: functional
[24] = Toxicity in BALB/c mouse assessed as glossy fur at 5 to 40 mg/kg, ip measured for 7 days; type: organism-based; details: in vivo, 168 h, dose 5-40 mg/kg, time 7 day
[25] = Binding affinity to phosphatidylglycerol assessed as association constant by ITC analysis
Staphylococcus aureus [26] = assay: Disruption of cell membrane in methicillin-resistant Staphylococcus aureus M11 assessed as shrinkage in cell membrane at 4 ug/ml incubated for 4 hrs by SEM analysis; type: functional, organism-based; details: dose 4.0 µg/ml
Staphylococcus aureus [27] = assay: Depolarization of cell membrane in methicillin-resistant Staphylococcus aureus M11 assessed as increase in fluorescence intensity incubated for 30 mins by DiSC3(5) dye based analysis; type: functional, organism-based
[28] = Toxicity in BALB/c mouse model of Sepsis infected with methicillin-resistant Staphylococcus aureus M11 assessed as lesions in spleen at 4 to 8 mg/kg measured after 24 hrs by H and E staining based analysis; type: organism-based; details: in vivo, dose 4-8 mg/kg
Staphylococcus aureus [29] = assay: Antibacterial activity against methicillin-resistant Staphylococcus aureus M22 incubated for 16 to 20 hrs by broth microdilution method; type: functional; details: time 16-20 hrs
Staphylococcus aureus [30] = assay: Antibacterial activity against methicillin-resistant Staphylococcus aureus M11 infected in BALB/c mouse model of Sepsis assessed as reduction in IL-6 level measured after 24 hrs; type: functional, organism-based; details: dose 4-8 mg/kg
Staphylococcus aureus [31] = assay: Antibacterial activity against methicillin-resistant Staphylococcus aureus M11 infected in BALB/c mouse model of Sepsis assessed as reduction in bacterial load in kidney at 10 mg/kg, ip measured after 48 hrs; type: functional
[32] = Toxicity in BALB/c mouse model of Sepsis infected with methicillin-resistant Staphylococcus aureus M11 assessed as lesions in kidney at 4 to 8 mg/kg measured after 24 hrs by H and E staining based analysis; type: organism-based; details: in vivo, dose 4-8 mg/kg
[33] = Toxicity in BALB/c mouse assessed as adverse reactions at 5 to 40 mg/kg, ip measured for 7 days; type: organism-based; details: in vivo, 168 h, dose 5-40 mg/kg, time 7 day
[34] = Toxicity in KM mouse assessed as abnormality in liver at 30 mg/kg, sc by H and E staining based analysis; type: organism-based; details: in vivo
[35] = Toxicity in BALB/c mouse model of Sepsis infected with methicillin-resistant Staphylococcus aureus M11 assessed as pathological change in kidney at 4 to 8 mg/kg measured after 24 hrs by H and E staining based analysis; type: organism-based; details: in vivo, dose 4-8 mg/kg
[36] = Toxicity in KM mouse assessed as abnormality in lung at 20 mg/kg, sc by H and E staining based analysis; type: organism-based; details: in vivo
[37] = Toxicity in KM mouse assessed as adverse reactions at <=20 mg/kg, sc; type: organism-based; details: in vivo

| SMILES | Activity (Staphylococcus aureus [1]) | Activity (Staphylococcus aureus [2]) | Activity [4] | Activity [5] | viability at 24 h, 32 times MIC [8] [%] | Activity (Staphylococcus aureus [9]) | fold change (FC) (Staphylococcus aureus [11]) | MIC (Staphylococcus aureus [12]) [mg/L] | MIC (Staphylococcus aureus [14]) [mg/L] | Activity (Staphylococcus aureus [15]) | MIC (Staphylococcus aureus [16]) [mg/L] | Activity [17] | Activity (Staphylococcus aureus [19]) | Activity (Staphylococcus aureus [20]) | Activity (Staphylococcus aureus [21]) | Activity (Staphylococcus aureus [22]) [log10CFU/g] | fold change (FC) (Staphylococcus aureus [23]) | Activity [24] | Activity (Staphylococcus aureus [26]) | Activity (Staphylococcus aureus [27]) | further results |
| --- | --- | --- | --- | --- | --- | --- | --- | --- | --- | --- | --- | --- | --- | --- | --- | --- | --- | --- | --- | --- | --- |
| CC(C)=CCc1c(OCCCCSc2cc[n+](CC(=O)N(CC(C)C)CC(C)C)cc2)ccc2ccc(=O)oc12.[Br-] | Active | Active | Non-toxic | Non-toxic | > 80 | Active; Compound Showed Only Minor Or No Change In Mic | 32 | 0.5 | 1 | Active | 1 | Non-toxic | Dose-dependent-effect; Compound Has Slightly Greater Efficacy Than Vancomycin | Dose-dependent-effect | Active; Compound Showed Only Minor Or No Change In Mic | 4.252 | ~10 | Non-toxic | Active | Dose-dependent-effect; Activity Was Observed Higher Than Melittin | Activity [3]: Non-toxic; Activity (Staphylococcus aureus [6]): Dose-dependent-effect; Activity [7]: Non-toxic; Activity (Staphylococcus aureus [10]): 4.33 log10CFU/ml; Activity (Staphylococcus aureus [13]): Dose-dependent-effect; mortality at 168 h [18]: 83.3%; Ka [25]: 3.53 10^4/M; Activity [28]: Non-toxic; MIC (Staphylococcus aureus [29]): 0.5 mg/L; Activity (Staphylococcus aureus [30]): Dose-dependent-effect; Compound Has Slightly Greater Efficacy Than Vancomycin; Activity (Staphylococcus aureus [31]): 1.81 log10CFU/ml; Activity [32]: Non-toxic; Activity [33]: Non-toxic; Activity [34]: Non-toxic; Activity [35]: Non-toxic |
| CCCCCNC(=O)C[n+]1ccc(SCCCCCOc2ccc3ccc(=O)oc3c2CC=C(C)C)cc1.[Br-] | Active | Active | Non-toxic | Non-toxic | > 80 | Active; Compound Showed Only Minor Or No Change In Mic | 32 | 0.5 | 1 | Active | 1 | Non-toxic | Dose-dependent-effect; Compound Has Slightly Greater Efficacy Than Vancomycin | Dose-dependent-effect | Active; Compound Showed Only Minor Or No Change In Mic | 3.828 | ~10 | Non-toxic | Active | Dose-dependent-effect; Activity Was Observed Higher Than Melittin | Activity [28]: Non-toxic; MIC (Staphylococcus aureus [29]): 0.5 mg/L; Activity [36]: Non-toxic; Activity (Staphylococcus aureus [30]): Dose-dependent-effect; Compound Has Slightly Greater Efficacy Than Vancomycin; Activity [37]: Non-toxic; Activity [32]: Non-toxic; Activity [33]: Non-toxic; Activity [35]: Non-toxic |
